pKi: −log10 of the molar value. Structures can show the parent of a compound that is named as a salt.

From patent publication US6492385B2, “Quinuclidine-substituted heteroaryl moieties for treatment of disease” (Pharmacia & Upjohn Company, priority 2000, dated 2002) come the findings set out here.

The test has as its target α7 nAChR (Rattus norvegicus, UniProt Q05941). Put plainly: [3H]-MLA competition binding assay, rat brain membranes.

Chain of α7 nAChR (Q05941 23-502): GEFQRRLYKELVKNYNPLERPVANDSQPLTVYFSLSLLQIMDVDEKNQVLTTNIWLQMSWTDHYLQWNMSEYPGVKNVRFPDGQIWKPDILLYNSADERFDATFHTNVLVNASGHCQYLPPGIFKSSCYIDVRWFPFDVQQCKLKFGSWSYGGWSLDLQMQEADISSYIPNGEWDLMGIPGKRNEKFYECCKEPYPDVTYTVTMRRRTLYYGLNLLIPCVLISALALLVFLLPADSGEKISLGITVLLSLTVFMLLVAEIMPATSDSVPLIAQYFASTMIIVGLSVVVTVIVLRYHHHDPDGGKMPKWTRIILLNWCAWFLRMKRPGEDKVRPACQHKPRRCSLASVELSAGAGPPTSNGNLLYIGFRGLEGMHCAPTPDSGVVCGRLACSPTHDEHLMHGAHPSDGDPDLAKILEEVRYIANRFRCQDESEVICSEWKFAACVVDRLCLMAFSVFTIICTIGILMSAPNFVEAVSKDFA

As to `O=C(N[C@H]1CN2CCC1CC2)c1ccc(-c2ccccc2O)s1` [Example 41, N-[(3R)-1-Azabicyclo[2.2.2]oct-3-yl]-5-(2-hydroxyphenyl)-thiophene-2-carboxamide Hydrochloride], the pKi (in general, −log10 of the Ki, conventionally taken in molar units) was 8.40 to 8.52.
The same measure for `COc1ccc(C(=O)N[C@H]2CN3CCC2CC3)s1` [Example 19, N-[(3R)-1-Azabicyclo[2.2.2]oct-3-yl]-5-methoxy-thiophene-2-carboxamide Hydrochloride]: 8.40 to 8.70.
